pIC50: −log10 of the molar value. Each block holds one compound with its values, some of them ahead of it.
Columns and labels:
[1] = Cytotoxicity against human SMMC7721 cells assessed as cell growth inhibition after 72 hrs in presence of 5% CO2 by MTS assay; assay type: functional; conditions: SMMC-7721, 72 h
[2] = Cytotoxicity against human Bel7402 cells assessed as cell growth inhibition after 72 hrs in presence of 5% CO2 by MTS assay; assay type: functional; conditions: Bel-7402, 72 h
[3] = Cytotoxicity against human QGY7703 cells assessed as cell growth inhibition after 72 hrs in presence of 5% CO2 by MTS assay; assay type: functional; conditions: QGY-7703, 72 h
[4] = molecular target: T1, Adrenergic receptor alpha-1 (Rattus norvegicus, UniProt P15823+P23944+P43140); assay: Displacement of [3H]prazosin from alpha1-adrenergic receptor in rat cerebral cortex membranes; assay type: cell membranes, Membrane
T1 sequence (P15823 whole entry): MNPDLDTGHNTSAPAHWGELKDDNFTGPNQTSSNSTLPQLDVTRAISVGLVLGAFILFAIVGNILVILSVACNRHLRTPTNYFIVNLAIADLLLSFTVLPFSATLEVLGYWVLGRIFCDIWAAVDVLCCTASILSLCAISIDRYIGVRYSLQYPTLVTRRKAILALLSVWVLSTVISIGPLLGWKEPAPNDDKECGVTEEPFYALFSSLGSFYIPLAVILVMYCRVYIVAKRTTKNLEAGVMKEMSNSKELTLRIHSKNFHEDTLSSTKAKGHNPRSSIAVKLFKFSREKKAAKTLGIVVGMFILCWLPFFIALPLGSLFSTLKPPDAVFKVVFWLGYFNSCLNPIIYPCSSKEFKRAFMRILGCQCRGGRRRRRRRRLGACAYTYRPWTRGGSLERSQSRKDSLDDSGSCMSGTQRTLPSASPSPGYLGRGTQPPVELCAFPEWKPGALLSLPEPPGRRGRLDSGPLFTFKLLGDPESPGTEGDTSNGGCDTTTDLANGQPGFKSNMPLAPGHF
T1 sequence (P23944 whole entry): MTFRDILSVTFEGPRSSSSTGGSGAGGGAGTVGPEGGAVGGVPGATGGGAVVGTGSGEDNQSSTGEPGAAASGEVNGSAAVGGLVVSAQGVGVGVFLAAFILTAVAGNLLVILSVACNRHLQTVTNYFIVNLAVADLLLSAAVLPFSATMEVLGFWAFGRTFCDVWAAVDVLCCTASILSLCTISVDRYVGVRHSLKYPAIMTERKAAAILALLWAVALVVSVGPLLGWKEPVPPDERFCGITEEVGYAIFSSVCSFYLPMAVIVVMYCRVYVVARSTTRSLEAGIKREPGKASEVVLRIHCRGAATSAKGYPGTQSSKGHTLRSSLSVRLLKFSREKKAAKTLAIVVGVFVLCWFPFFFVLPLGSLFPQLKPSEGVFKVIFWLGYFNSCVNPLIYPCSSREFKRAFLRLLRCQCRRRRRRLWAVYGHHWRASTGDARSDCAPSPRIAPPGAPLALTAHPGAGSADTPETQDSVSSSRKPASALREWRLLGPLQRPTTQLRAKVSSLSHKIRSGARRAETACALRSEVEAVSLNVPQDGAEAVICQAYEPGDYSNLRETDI
T1 sequence (P43140 whole entry): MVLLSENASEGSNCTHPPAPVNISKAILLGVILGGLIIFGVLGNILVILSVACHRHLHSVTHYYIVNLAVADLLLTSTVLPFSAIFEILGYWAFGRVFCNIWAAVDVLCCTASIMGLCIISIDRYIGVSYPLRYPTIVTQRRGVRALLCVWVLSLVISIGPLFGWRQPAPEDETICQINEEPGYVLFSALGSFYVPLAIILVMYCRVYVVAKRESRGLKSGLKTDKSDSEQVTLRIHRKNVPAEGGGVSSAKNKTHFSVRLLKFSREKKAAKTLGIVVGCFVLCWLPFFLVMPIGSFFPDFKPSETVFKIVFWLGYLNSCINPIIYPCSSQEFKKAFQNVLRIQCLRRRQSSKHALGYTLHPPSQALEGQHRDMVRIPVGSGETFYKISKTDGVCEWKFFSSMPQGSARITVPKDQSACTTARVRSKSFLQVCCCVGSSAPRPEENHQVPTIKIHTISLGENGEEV

[5] = molecular target: Adrenergic receptor alpha-1 (Rattus norvegicus) (UniProt P15823+P23944+P43140); assay: Potency index, ratio of compound affinity to prazosin affinity for alpha1-adrenergic receptor in rat cerebral cortex membranes; assay type: cell membranes; conditions: Membrane
[6] = Antiinflammatory activity in human HL60 cells assessed as inhibition of LPS-induced IL-1beta production; assay type: functional, cell-based; conditions: HL-60
[7] = species on record: Rattus norvegicus; assay: Antiinflammatory activity in rat pyresis model; assay type: functional
[8] = test system: Rattus norvegicus; assay: Antiinflammatory activity in rat paw edema model; assay type: functional
[9] = Antiplatelet activity in human washed platelets assessed as reduction in thrombin-induced platelet aggregation preincubated for 5 mins followed by thrombin induction measured after 5 mins by dual channel aggregometric analysis; assay type: functional, cell-based
[10] = Agonist activity at PGI2 in human platelet-rich plasma assessed as inhibition of ADP-induced platelet aggregation
[11] = Cytotoxicity against human IMR32 cells assessed as reduction in cell viability after 72 hrs by MTT assay; assay type: functional, cell-based; conditions: IMR-32, 72 h
[12] = Antiplatelet activity in human platelets assessed as reduction in thrombin-induced platelet aggregation by turbidimetric method; assay type: functional, cell-based

Compound: O=c1ccc(-c2ccc(N3CCOCC3)c(C(F)(F)F)c2)n[nH]1
- GI50 [1]: 28.7 nM
- GI50 [2]: 469 nM
- GI50 [3]: 30.2 nM

Compound: O=C(c1ccco1)N1CCN(c2cnn(CCCCCCCN3CCN(c4ccccc4Oc4ccccc4)CC3)c(=O)c2Cl)CC1
- Ki [4]: 0.052 nM
- Ratio [5]: 5

Compound: COc1ccc(-c2cc(=O)n(CC/C=C/c3ccccc3)nc2-c2ccc(OC)cc2)cc1
- pIC50 [6]: 7.00

Compound: C[C@H]1C[C@@H]1Cn1ncc(-c2ccc(S(C)(=O)=O)cc2)c(-c2ccc(F)cc2)c1=O
- ED50 [7]: 1.1 mg/kg

Compound: CC(C)Oc1c(-c2ccc(S(C)(=O)=O)cc2)cnn(Cc2ccccc2)c1=O
- ED50 [8]: 0.3 mg/kg

Compound: Cc1n[nH]c(=O)c2c1c1cc(F)ccc1n2Cc1cn(C2CCCCC2)nn1
- pIC50 [11]: 7.40

Other lines, results leading:

- pIC50 [9]: 4.60
Compound: COC(=O)/C(=C/c1cc(O)nnc1-c1ccccc1)C(C)=O

- pIC50 [9]: 4.70
Compound: CCOC(=O)C(=Cc1cc(=O)[nH]nc1-c1ccccc1)C(=O)OCC

- pIC50 [10]: 7.09
Compound: O=C(O)COc1cccc2c1CC[C@H](Cn1nc(C(c3ccccc3)c3ccccc3)ccc1=O)C2

- pIC50 [9]: 4.60
Compound: O=C(/C=C/c1cc(=O)[nH]nc1-c1ccccc1)c1ccccc1

- pIC50 [9]: 4.82
Compound: CC(C)(C)c1ccc(CSc2c(-c3ccccc3)nn(C(C)(C)C)c(=O)c2F)cc1

- pIC50 [12]: 5.46
Compound: O=C(/C=C/c1cc(=O)[nH]nc1-c1ccccc1)c1ccc(Cl)cc1Cl

- pIC50 [9]: 4.35
Compound: COC(=O)C(=Cc1cc(=O)[nH]nc1-c1ccccc1)C(=O)OC

From ChEMBL document CHEMBL3871265, “The therapeutic journey of pyridazinone” (Eur J Med Chem, 2016)
